Laboratory results reported in patent US20260306500A1, “METHOD OF INHIBITING ADENOSINE TRIPHOSPHATE SECRETION, METHOD OF INHIBITING HEPATIC STELLATE CELL ACTIVATION, METHOD OF DEACTIVATING HEPATIC STELLATE CELL, METHOD OF TREATING HEPATIC FIBROSIS, METHOD OF TREATING NON-ALCOHOLIC STEATOHEPATITIS, AND METHOD OF TREATING PSORIASIS” (Kurume University, priority 2023, published 2026).

Experiments:
V-ATPase = target: T1, V-ATPase (Bos taurus, UniProt P31404+P31408); assay: Transmembrane potential generated (oxonol-V fluorescence quenching) in chromaffin granules; assay type: biochemical, cattle; details: role: inhibitor; 5 mM PEP, in presence of ATP, N=2
T1 construct: Chromaffin granule membranes were prepared from adrenal glands collected from slaughtered cattle; from tissue; host or cells: cattle adrenal glands, chromaffin granule membranes (sucrose density gradient)
T1 sequence (P31404 whole entry, looked up): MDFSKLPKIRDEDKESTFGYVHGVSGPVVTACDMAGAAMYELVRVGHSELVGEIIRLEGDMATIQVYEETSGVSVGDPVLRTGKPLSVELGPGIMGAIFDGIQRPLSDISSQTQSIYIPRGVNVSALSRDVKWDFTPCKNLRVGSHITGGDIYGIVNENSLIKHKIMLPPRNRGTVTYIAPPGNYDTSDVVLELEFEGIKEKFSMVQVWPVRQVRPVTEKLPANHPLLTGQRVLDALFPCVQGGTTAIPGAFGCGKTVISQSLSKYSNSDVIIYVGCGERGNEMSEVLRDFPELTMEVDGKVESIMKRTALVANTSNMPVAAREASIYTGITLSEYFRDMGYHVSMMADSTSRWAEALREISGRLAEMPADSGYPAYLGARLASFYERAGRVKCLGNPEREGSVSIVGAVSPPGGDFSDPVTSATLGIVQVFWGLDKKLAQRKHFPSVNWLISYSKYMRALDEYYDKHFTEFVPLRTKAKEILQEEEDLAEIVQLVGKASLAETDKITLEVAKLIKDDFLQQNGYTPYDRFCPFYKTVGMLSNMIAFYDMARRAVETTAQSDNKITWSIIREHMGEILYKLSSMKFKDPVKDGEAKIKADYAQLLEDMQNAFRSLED
T1 sequence (P31408 whole entry, looked up): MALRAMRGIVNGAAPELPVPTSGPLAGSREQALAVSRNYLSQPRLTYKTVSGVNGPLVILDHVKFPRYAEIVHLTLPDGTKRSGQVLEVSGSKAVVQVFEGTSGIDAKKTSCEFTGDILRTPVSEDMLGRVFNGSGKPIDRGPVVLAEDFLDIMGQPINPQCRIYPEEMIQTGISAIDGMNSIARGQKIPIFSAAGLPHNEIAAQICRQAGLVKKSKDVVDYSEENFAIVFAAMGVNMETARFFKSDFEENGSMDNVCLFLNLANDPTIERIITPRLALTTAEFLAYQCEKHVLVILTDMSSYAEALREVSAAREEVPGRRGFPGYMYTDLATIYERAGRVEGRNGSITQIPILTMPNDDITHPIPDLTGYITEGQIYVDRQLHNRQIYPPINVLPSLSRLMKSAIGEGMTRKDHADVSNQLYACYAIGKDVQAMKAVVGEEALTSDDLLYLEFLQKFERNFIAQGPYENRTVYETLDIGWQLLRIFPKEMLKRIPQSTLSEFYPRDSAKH
Protocol: Chromaffin granule membranes were prepared from adrenal glands collected from slaughtered cattle according to Reference A (Nathan Nelson et al., 1988, Chromaffin Granule Proton Pump, Methods in Enzymology, 157, 619-633). Chromaffin granule membranes prepared by sucrose density gradient centrifugation were suspended in 2 ml of SME buffer (20 mM MOPS-tris (pH 7.0), 0.3 M sucrose, 5 mM EDTA, 10 μg/ml leupeptin, and 10 μg/ml pepstatin)+25% glycerol, and the resulting suspension was aliquoted and stored at −80° C. Under these conditions, the ATP transport activity, the V-ATPase activity, and the catecholamine transport activity remain fully active for at least one year.
ATP-dependent proton transport by V-ATPase was measured according to Reference B. Proton transport activity was measured using a spectrofluorometer at excitation wavelength of 492 nm and a fluorescence wavelength 540 nm, wherein fluorescence quenching of acridine orange was used as an index (N=2). The transmembrane potential generated was measured using a spectrofluorometer at an excitation wavelength of 580 nm and a fluorescence wavelength of 630 nm, wherein fluorescence quenching of oxonol-V was used as an index (N=2). […]

[1] = clodronate; cited from earlier work
[2] = tested on: MCD diet-induced NASH model; details: administration of clodronate, Non Patent Literature 4; cited from earlier work
keratinocytes = assay: Imiquimod-induced ATP secretion in keratinocytes; assay type: cell-based, human; details: 18 hours, N=8 (FIG. 32)
Protocol: In the same manner as in Example 1, keratinocytes were cultured at 2.5×10^4 cells/well in a 24-well plate at 37° C. in 5% CO2 for 4 days. The medium was replaced with HBSS (manufactured by Gibco) supplemented with 1 μM or 10 μM imeglimin, and incubation was performed at 37° C. in 5% CO2 for 18 hours. Thereafter, imiquimod was added thereto at 1 μg/ml or 0.5 μg/ml, and incubation was performed for 15 minutes, followed by collection of 200 μl of the supernatant. The supernatant was immediately treated on a heat block at 95° C. for 10 minutes, and ATP in the supernatant was quantified using a ATP Assay Kit—Luminescence (manufactured by Dojindo) (N=8).

[3] = tested on: ATP-loaded vesicles of keratinocytes; assay: Accumulation of MANT-ATP in granules of keratinocytes (confocal microscopy); assay type: cell-based, human; details: 10 μM imeglimin, 19 hours, 0.3 mM MANT-ATP (FIG. 13)
Protocol: Keratinocytes were cultured in the same manner as in Example 8. Keratinocytes were cultured at 4×10^4 cells/ml in a glass-bottom dish (35 mm, manufactured by Matsunami Glass Ind., Ltd.) at 37° C. in 5% CO2 for 2 days. The culture medium was then replaced with a medium supplemented with MANT-ATP (manufactured by Invitrogen) at a final concentration of 0.3 mM, and further incubation was performed for 4.5 hours. Subsequently, imeglimin was added thereto to a final concentration of 10 μM, and further incubation was performed at 37° C. in 5% CO2 for 19 hours. Thereafter, the cells were washed twice with HBSS (manufactured by Gibco) and observed using an inverted confocal laser microscope (FV-1000 OSR, manufactured by Olympus Corporation).

VNUT = assay: Inhibitory effect on VNUT (data not shown)
α-SMA in mouse liver = assay: α-SMA Western blotting of liver tissue of TAA-treated mice; assay type: in vivo; details: imeglimin 200 mg/kg p.o. (FIG. 31)
Protocol: In accordance with Example 15, immunostaining of α-SMA in liver sections and observation by fluorescence microscopy were performed for the normal control group, the TAA group, and the TAA+IMG group, and for a TAA+Clo group, which was treated in the same manner as the TAA+IMG group except that clodronate, instead of imeglimin, was administered at 30 mg/kg by blending it in the drinking water from 1 week after the start of TAA administration.
Further, α-SMA was compared by Western blotting. Fresh mouse liver was homogenized in Western lysis buffer (20 mM Tris-HCl, pH 7.6, 150 mM NaCl, 2 mM EDTA, 0.5% NP-40) supplemented with protease and phosphatase inhibitor tablets (manufactured by Roche Applied Science), followed by centrifugation at 10,000×g at 4° C. for 5 minutes to obtain a supernatant. Protein content in the supernatant was quantified using a BCA Protein Assay Kit (manufactured by ThermoFisher Scientific). […] Thereafter, protein bands were visualized using an […] (ECL) Western blotting detection system (manufactured by GE Healthcare) and detected with an image analyzer LAS-4000 mini (manufactured by Fujifilm).

C=C(OP(=O)(O)O)C(=O)O [PEP, phosphoenolpyruvic acid]
change in oxonol-V quenching level (V-ATPase): did not change the level of quenching

O=P(O)(O)C(Cl)(Cl)P(=O)(O)O [clodronate]
absorption [1]: extremely low absorption
accumulation in bone [1]: accumulate in bone
serious side effect [1]: jaw osteonecrosis
NASH activity score, inflammatory cell infiltration, and hepatic fibrosis [2]: improves

C[C@@H]1N=C(N)NC(N(C)C)=N1 [imeglimin]
imiquimod-promoted ATP secretion (keratinocytes; 1 μM imeglimin): strongly inhibited
imiquimod-promoted ATP secretion (keratinocytes; 10 NM imeglimin (so in the source)): strongly inhibited
accumulation of MANT-ATP in granules [3]: absent
inhibitory effect on VNUT (VNUT): neither imeglimin nor metformin exhibited a strong inhibitory effect
TAA-induced increase in α-SMA (Western blotting) (α-SMA in mouse liver): markedly suppressed
